From publication PMC4843953, “Eukaryotic elongation factor 2 kinase regulates the synthesis of microtubule‐related proteins in neurons” (Journal of Neurochemistry, 2015)

Assays:
Format in all cases: cell-based, mice
eEF2 phosphorylation = assay: p-eEF2 levels in primary cortical neurons (immunoblot)
Excerpt: Primary neuronal cortical cultures were isolated from P0 or P1 C57BL/6J mice, or eEF2K‐WT or KO mice of either sex as previously described (Wong et al. 2005; Kenney et al. 2015). eEF2K mice were generated by Taconic Biosciences, Cranbury, NJ, USA; all mice were bred from colonies maintained at the Southampton General Hospital. All procedures involving mice were done in accordance with United Kingdom Animals (Scientific Procedures) Act 1986 and approved by the University of Southampton.
Figure 1 Combining pharmacological and genetic strategies with stable isotope labeling of amino acids in cell culture (SILAC)/bio‐orthogonal non‐canonical amino acid tagging (BONCAT) labeling to identify proteins whose synthesis is regulated by eEF2K. (a) Top, the effect of bicuculline administration on p‐eEF2 levels. […] Bottom, examination of the effect of bicuculline on p‐eEF2 levels in neurons from eEF2K‐WT or KO mice. Blots are representative of three to four independent experimental replicates. (b) Experimental designs for combined SILAC/BONCAT labeling to identify proteins whose synthesis are affected by eEF2K inhibition. […] Protein localization was determined using DAVID (Huang et al. 2009), or where DAVID lacked annotation, NCBI.
(§1) Immunoblot data were quantified using LICOR software (version 3.0, Lincoln, NE, USA). Data were analyzed using two‐way ANOVAs. […]

[1] = system: mRNA levels (Calm, Nsf, Ppp1 cc, Kif5a, Map2, Map1b, Arc); assay: qRT-PCR of total mRNA levels in primary cortical neurons; settings: bicuculline 50 μM, 60 min; p < 0.001
Method: Neurons were treated with bicuculline (50 μM) or vehicle dimethylsulfoxide for 60 min prior to lysis. JAN‐452 or JAN‐384 was administered 30 min prior to bicuculline/vehicle. RNA was purified from cultures using the GeneJET RNA purification kit (K0731; Thermo Fisher, Waltham, MA, USA) and QIAshredder spin columns (79656; Qiagen, Valencia, CA, USA). One μg of RNA was reverse transcribed using the ImProm‐II reverse transcription system (Promega, Madison, WI, USA). qPCR was performed with 1 μL of cDNA using the GoTaq qPCR master mix (A6001; Promega) on a StepOne real‐time PCR system (Life Technologies, Grand Island, NY, USA). PCR conditions were as follows: 95°C for 2 min followed by 40 cycles of 95°C for 15 s and 60°C for 45 s. Median Ct values from samples run in triplicate were used for analysis using the ΔΔCt method with Gapdh as the control. Prior to use in experiments, all primer pairs were determined to be efficient (100 ± 10%) and yield only one appropriately sized product based on melt‐curve analysis and agarose gel electrophoresis. Primers were as follows: Calm: 5′‐[…]‐3′ and 5′‐[…]‐3′; Nsf: 5′‐ […]‐3′ and 5′‐[…]‐3′; Ppp1 cc: 5′‐ […]‐3′ and 5′‐[…]‐3′; Kif5a: 5′‐ […]‐3′ and 5′‐[…]‐3′; Map2: 5′‐ […]‐3′ and 5′‐[…]‐3′; Map1b: 5′‐ CGGACAGTGCTTTGAGAAC‐3′ and 5‐GTGAGGCTGGCTTTGTTG‐3′; Gapdh: 5′‐[…]‐3′ and 5′‐[…]‐3′; Arc: 5′‐[…]‐3′ and 5′‐[…]‐3′. […]

newly synthesized NSF = assay: Newly synthesized protein, AHA labeling, streptavidin isolation and western blot; settings: AHA labeling 1 h; 2 × 2 ANOVA
Method: (§2) Neurons were starved of Met for 30 min in Met‐free neurobasal medium and then labeled for 1 h in the presence of 2 mM AHA. After labeling, neurons were washed three times in ice cold phosphate‐buffered saline (PBS) and then lysed [50 mM Tris‐HCl, 50 mM β‐glycerophosphate, 1 mM EGTA, 1 mM EDTA, 1% Triton‐X, 2 × protease inhibitors (Roche Molecular Biochemicals, Indianapolis, IN, USA)] on ice. The lysate was centrifuged at 14 000 g for 10 min at 4°C and the supernatant was used for click‐chemistry using a biotin‐alkyne (B10185; Invitrogen, Carlsbad, CA, USA) and the protein reaction kit (C10276; Invitrogen) so that only newly synthesized proteins are tagged with biotin. Un‐reacted biotin was removed via gel‐filtration (GE; PD MiniTrap G‐25) using PBS‐T (0.01% Tween) as flow‐through. […]
as §1
(§3) Figure 3 Confirmation of two eEF2K targets identified via stable isotope labeling of amino acids in cell culture (SILAC)/bio‐orthogonal non‐canonical amino acid tagging (BONCAT). […] (c) Quantification of western blot data. *p < 0.01 via 2 × 2 (bicuculline × eEF2K inhibitor) ANOVA; n = 8–9.

newly synthesized PPP1CC = assay: as above; settings: AHA labeling 1 h; 2 × 2 ANOVA
Method: as §2, §1, §3

## CN1CCc2cc3c(cc2[C@H]1[C@@H]1OC(=O)c2c1ccc1c2OCO1)OCO3 [bicuculline]
eEF2 phosphorylation; eEF2K-KO neurons, completely devoid of eEF2 phosphorylation
  eEF2 phosphorylation in neurons from eEF2K-KO mice: did not affect
eEF2 phosphorylation; primary cortical neurons, back to baseline levels after 60 min
  p-eEF2 level after bicuculline administration: rapid increase
[1]
  Arc mRNA: large increase
Newly synthesized NSF
  amount of newly synthesized NSF: no effect
Newly synthesized PPP1CC
  amount of newly synthesized PPP1CC: no effect
